From ChEMBL document CHEMBL1159212, “Microbial metabolites of ophiobolin A and antimicrobial evaluation of ophiobolins” (1995)
In brackets after ≈: the same amount, converted by molar mass. Activity calls are given as the source filed them. The calls are words filed in the database; no cut-off is given here.

Experiments:
Cryptococcus neoformans = experiment: Antifungal activity against Cryptococcus neoformans by agar-well diffusion assay; assay type: functional
[1] = tested on: Trichophyton mentagrophytes; experiment: Antifungal activity against Trichophyton mentagrophytes by agar-well diffusion assay; assay type: functional; conditions: for MIC: Trichophyton mentagrophytes
Escherichia coli = experiment: Antibacterial activity against Escherichia coli by agar-well diffusion assay; assay type: functional, organism-based
[2] = tested on: Mycobacterium intracellulare; experiment: Antibacterial activity against Mycobacterium intercellulare by agar-well diffusion assay; assay type: functional
Candida albicans = experiment: Antifungal activity against Candida albicans by agar-well diffusion assay; assay type: functional; conditions: for MIC: Candida albicans
Staphylococcus aureus = experiment: Antibacterial activity against Staphylococcus aureus by agar-well diffusion assay; assay type: functional
Yarrowia deformans = experiment: Antifungal activity against Torulopsis petrophilum by agar-well diffusion assay; assay type: functional
Candida = experiment: Antifungal activity against Torulopsis cremoris by agar-well diffusion assay; assay type: functional
Aspergillus flavus = experiment: Antifungal activity against Aspergillus flavus by agar-well diffusion assay; assay type: functional

Question: Which “inhibition zone (IZ)” value (Cryptococcus neoformans) does the source give for `CC(C)=C[C@H]1C[C@H](C)[C@]2(CC[C@]3(C)C[C@H]4[C@@H]5/C(=C\C[C@H]32)C(=O)OC5(O)C[C@@]4(C)O)O1` (stereo partly specified) here?
Answer: <=1 mm

Question: What about the “inhibition zone (IZ)” value [1] of the same compound?
Answer: <=7 mm

Question: What about the Activity (Escherichia coli) of the same compound?
Answer: inactive

Question: And the Activity [2]?
Answer: inactive

Question: And the Activity (Candida albicans)?
Answer: inactive

Question: What about the “inhibition zone (IZ)” value (Staphylococcus aureus) of the same compound?
Answer: >12 mm

Question: Which results are given for `C[C@@H]1[C@H](O)[C@@H](C)/C=C/C=C/C=C/C=C/C=C/C=C/C=C/[C@H](O[C@@H]2O[C@H](C)[C@@H](O)[C@H](N)[C@@H]2O)C[C@@H]2O[C@](O)(C[C@@H](O)C[C@@H](O)[C@H](O)CC[C@@H](O)C[C@@H](O)CC(=O)O[C@H]1C)C[C@H](O)[C@H]2C(=O)O` [AMPHOTERICIN B]?
Answer: MIC (Yarrowia deformans): 0.2 µg/mL (≈ 0.216 µM); MIC (Candida): 3.12 µg/mL (≈ 3.38 µM); MIC [1]: 0.78 µg/mL (≈ 0.844 µM); MIC (Aspergillus flavus): 3.12 µg/mL (≈ 3.38 µM); MIC (Candida albicans): 0.78 µg/mL (≈ 0.844 µM)

Question: For `CC(C)=C[C@H]1C[C@H](C)[C@]2(CC[C@]3(C)C[C@H]4[C@H]5/C(=C\C[C@H]32)C(=O)O[C@H]5C[C@@]4(C)O)O1` [OPHIOBOLIN A LACTONE], which “inhibition zone (IZ)” value (Cryptococcus neoformans) is on record?
Answer: 1 mm

Question: What about the “inhibition zone (IZ)” value [1] of the same compound?
Answer: 7 mm

Question: And the Activity (Escherichia coli)?
Answer: inactive

Question: And the “inhibition zone (IZ)” value [2]?
Answer: 3 mm

Question: What about the Activity (Candida albicans) of the same compound?
Answer: inactive

Question: And the Activity (Staphylococcus aureus)?
Answer: inactive

Question: Which MIC (Yarrowia deformans) does the source give for `CC(C)=C[C@H]1C[C@H](C)[C@]2(CC[C@]3(C)C[C@H]4[C@H](C(=O)C[C@@]4(C)O)/C(C=O)=C\C[C@H]32)O1` [OPHIOBOLIN A] here?
Answer: 1.56 µg/mL (≈ 3.89 µM)

Question: What about the “inhibition zone (IZ)” value (Cryptococcus neoformans) of the same compound?
Answer: 3 mm

Question: And the MIC (Candida)?
Answer: 0.2 µg/mL (≈ 0.499 µM)

Question: And the “inhibition zone (IZ)” value [1]?
Answer: >12 mm

Question: What about the MIC [1] of the same compound?
Answer: 12.5 µg/mL (≈ 31.2 µM)

Question: And the Activity (Escherichia coli)?
Answer: inactive

Question: And the “inhibition zone (IZ)” value [2]?
Answer: 3 mm

Question: And the MIC (Aspergillus flavus)?
Answer: 25 µg/mL (≈ 62.4 µM)

Question: What about the “inhibition zone (IZ)” value (Candida albicans) of the same compound?
Answer: 7 mm

Question: What about the MIC (Candida albicans) of the same compound?
Answer: 125 µg/mL (≈ 312 µM)

Question: And the “inhibition zone (IZ)” value (Staphylococcus aureus)?
Answer: 7 mm

Question: What does the source list for `CC(C)=CCC[C@H](C)[C@@]1(O)CC[C@]2(C)C[C@H]3[C@H]4/C(=C\C[C@H]21)C(=O)O[C@H]4C[C@@]3(C)O` [OPHIOBOLIN B LACTONE]?
Answer: inhibition zone (IZ) (Cryptococcus neoformans): 1 mm; inhibition zone (IZ) [1]: 7 mm; Activity (Escherichia coli): inactive; Activity [2]: inactive; Activity (Candida albicans): inactive; Activity (Staphylococcus aureus): inactive

Question: For `CC(C)=CCC[C@H](C)[C@@]1(O)CC[C@]2(C)C[C@H]3[C@H](C(=O)C[C@@]3(C)O)/C(C=O)=C\C[C@H]21` [OPHIOBOLIN B], which “inhibition zone (IZ)” value (Cryptococcus neoformans) is on record?
Answer: <=1 mm

Question: What about the “inhibition zone (IZ)” value [1] of the same compound?
Answer: 7 mm

Question: What about the Activity (Escherichia coli) of the same compound?
Answer: inactive

Question: What about the Activity [2] of the same compound?
Answer: inactive

Question: And the Activity (Candida albicans)?
Answer: inactive

Question: And the “inhibition zone (IZ)” value (Staphylococcus aureus)?
Answer: 3 mm

Question: Which results are given for `CC(C)=C[C@H]1C[C@H](C)[C@]2(CC[C@]3(C)C[C@@H]4C(C)=CC(=O)[C@H]4/C(CO)=C\C[C@H]32)O1` [OPHIOBOLIN I]?
Answer: inhibition zone (IZ) (Cryptococcus neoformans): 1 mm; inhibition zone (IZ) [1]: 7 mm; Activity (Escherichia coli): inactive; inhibition zone (IZ) [2]: 3 mm; Activity (Candida albicans): inactive; Activity (Staphylococcus aureus): inactive

Question: Which “inhibition zone (IZ)” value (Cryptococcus neoformans) does the source give for `CC(C)=C[C@H]1C[C@H](C)[C@]2(CC[C@]3(C)C[C@H]4[C@H]5/C(=C\C[C@H]32)C(=O)OC5(O)C[C@@]4(C)O)O1` (stereo partly specified) [OPHIOBOLIN L] here?
Answer: 3 mm

Question: And the “inhibition zone (IZ)” value (Escherichia coli)?
Answer: inactive

Question: And the “inhibition zone (IZ)” value [2]?
Answer: 3 mm

Question: What about the “inhibition zone (IZ)” value (Candida albicans) of the same compound?
Answer: 1 mm

Question: What about the “inhibition zone (IZ)” value (Staphylococcus aureus) of the same compound?
Answer: inactive
